{
  "source": "paper PMC6396153",
  "about": "“Dechlorination of polychlorobiphenyl degradation metabolites by a recombinant glutathione S‐transferase from Acidovorax sp. KKS102” (FEBS Open Bio, 2019)",
  "system": "BphK-KKS",
  "assay": "absorbance at […] nm, non-linear regression",
  "assay_type": "biochemical, Acidovorax sp. KKS102",
  "conditions": "GSH held constant, CDNB varied 0.3-2.1 mM, 50 mM sodium phosphate pH 6.5; read-out: CDNB / K m",
  "data": [
    {"smiles": "O=[N+]([O-])c1ccc(Cl)c([N+](=O)[O-])c1", "note": "[CDNB, 1-chloro-2,4-dinitrobenzene]", "values": [
      {"measurement": "Km", "value": "2580 ± 140", "unit": "µM"}
    ]}
  ]
}
